The values that follow come from US7989466B2, “Methods to inhibit or augment an inflammatory response” (Cambridge Enterprise Limited, priority 1999, dated 2011).

Assay type in all cases: cell-based, human
Experiment [1] has as its system MIP1α induced THP-1 migration. The experiment in a line: THP-1 trans-well migration assay, MIP1α as chemoattractant. Conditions: for % inhibition at 100 μM versus MIP1α, THP-1 migration: n.s. = no statistically significant inhibition. The procedure, abridged: (§1)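 5×10^4 THP-1 cells with serially diluted peptide in upper chamber, 5 µm filter, recombinant human chemokine 50 ng/ml (5.9 nM) in lower chamber. Incubated 4 h at 37 °C. Migrated cells counted by MTT staining, A595 read against a THP-1 standard curve.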

For experiment [2], the system named is chemokine-induced THP-1 migration. The experiment in a line: THP-1 trans-well migration assay, panel of chemokines (MCP-1, MIP1α, IL-8, SDF1α). Conditions: for effect on THP-1 migration induced by the chemokine panel, in words: IL-8, SDF1α; for CC SPECIFICITY: average inhibitory ED50 versus SDF1 and IL8 divided by average inhibitory ED50 versus MCP-1 and MIP1α.

The subject of experiment [3] is SDF-1α induced THP-1 migration. As to the kind of experiment: THP-1 trans-well migration assay, SDF-1α as chemoattractant. Conditions: for % inhibition at 100 μM versus SDF-1α, THP-1 migration: n.s. = no statistically significant inhibition. The procedure, abridged: as §1
The test system of experiment [4] is IL8 induced THP-1 migration. As to the kind of experiment: THP-1 trans-well migration assay, IL-8 as chemoattractant. Conditions: for % inhibition at 100 μM versus IL8, THP-1 migration: n.s. = no statistically significant inhibition. In outline:
as §1

Experiment [5] deals with TGFβ1 induced THP-1 migration. As to the kind of experiment: THP-1 trans-well migration assay, TGFβ1 as non-chemokine control. Conditions: for ED50 versus TGFβ1, inhibition of THP-1 migration: n.s. = no statistically significant inhibition (p > 0.05); for % inhibition at 100 μM versus TGFβ1, THP-1 migration: n.s. = no statistically significant inhibition. Here is the method:
Any method suitable for counting cells can be used, for example, counting with a hemocytometer, incubation of the cells with MTT (see above), or FACS analysis. A negative control assay is also performed, using TGF-β or another non-chemokine chemoattractant (e.g., IL1β or TNFα). To assess whether the agent is cytotoxic, the same concentrations of agent are incubated with THP-1 cells. Agents which 1) are not cytotoxic at levels which inhibit migration, 2) are ineffective at inhibiting the negative control-induced migration, and 3) reduce or inhibit chemokine-induced THP-1 migration, are agents which fall within the scope of the invention.
Chemotaxis was induced in a 96-well disposable chemotaxis chamber fitted with a […] polycarbonate filter (PVP free, ChemoTX, Neuroprobe Inc., Cabin John). […] The framed filter was aligned with the holes in the corner of the filter frame and placed over the wells. […] Peptides were dissolved in Milli Q water and then serially diluted in culture medium. In most cases, the serially diluted peptides were added to the upper compartment of the chemotaxis chamber. The chamber was incubated at 37° C. in a humidified atmosphere of 5% CO2 for 4 hours.
After incubation, the cells were gently removed from the top of the filter with a pipette, 20 μl of 20 mM EDTA in PBS was added into each top well, and the mixture was incubated for 20 minutes at 4° C. The filter was then carefully flushed with media using a gentle flow, and removed. […] The curve was based on a two-fold dilution series of THP-1 cells (top standard 100,000 cells in 29 μl). […] The media was carefully aspirated from each well, and the converted dye was solubilized by 20 μl of DMSO.

The mark [6] stands for this setting: n.s. = no statistically significant inhibition (p > 0.05).
Where [7] appears, read: ns = not significantly different from control.

Read-outs that look alike come from different tables or passages of the source. Positions of bridges follow the written chain, without caps; N, C: chain ends. Non-standard residues stand in square brackets, D forms with d. Residues, ends and D or L forms follow the SMILES beside them. No end group written: not given here.

For `CC[C@@H](C)[C@H]1NC(=O)[C@@H](CCC(N)=O)NC(=O)[C@H](N)CSSC[C@H](C(N)=O)NC(=O)[C@@H](CC(C)C)NC(=O)[C@@H](CC(=O)O)NC(=O)[C@H]2CCCN2C(=O)[C@@H](CCCCN)NC(=O)[C@@H](CCC(N)=O)NC(=O)[C@@H](CCCCN)NC(=O)[C@@H](Cc2c[nH]c3ccccc23)NC1=O` (H-[dC][dQ][dI][dW][dK][dQ][dK][dP][dD][dL][dC]-NH2; disulfide 1-11; N-terminus assumed), the “shift of the MIP-1α dose response curve to higher concentrations” value in experiment [1] (sub-maximal dose of inhibitor in the upper chamber) is reported as 5-100 fold. Besides, the “effect on THP-1 migration induced by the chemokine panel, in words” value in experiment [2] (MCP-1, MIP1α) is “inhibited THP-1 cell migration induced by MCP-1, MIP1α, IL-8, and SDF1, with very similar ED50s”.
For the compound `C=CCCCCCCCCC(=O)N[C@H]1CCC(=O)NC1=O` [A-I (NR58.4), [3S]-3-(undec-10-enoylamino)piperidine-2,6-dione], the EC50 in experiment [1] (Homo sapiens, THP-1, read-out: ED50, MIP1α chemotaxis assay) is 0.0002 µM; in experiment [3] (Homo sapiens, THP-1, read-out: ED50, SDF1α chemotaxis assay) it was 0.008 µM; in experiment [4] (Homo sapiens, THP-1, read-out: ED50, IL-8 chemotaxis assay) it was below 0.01 µM.
In the case of `NCCCC[C@H](NC(=O)[C@H](CCC(N)=O)NC(=O)[C@@H](N)CCCCN)C(=O)O` [KQK], the “ED50 versus MIP1α, inhibition of THP-1 migration” value in experiment [1] (setting [6]) is listed as “n.s”. For the same compound, the “ED50 versus TGFβ1, inhibition of THP-1 migration” value (“ED50 versus TGFβ1, inhibition” for short) in experiment [5] was “n.s”. For the same compound, in experiment [3] (setting [6]), the “ED50 versus SDF-1α, inhibition of THP-1 migration” value is “n.s”. Besides, in experiment [3] (tripeptide at 100 μM, mean ± range, dash = no statistically significant reduction in migration), the “percentage inhibition of migration induced by SDF1α” value is listed as 29 ± 1%. The “specificity for the cognate chemokine over all the other chemokines tested” value in experiment [2] (KQK MCP-1, SEE MIP1-α) is listed as “more than 100 fold”. In addition, the Chemokine antagonist result in experiment [2] (active against at least one of IL-8, SDF-1α, MCP-1, MIP1α) is recorded as “+++++”. Moreover, the “CC SPECIFICITY” value in experiment [2] is on record as above 100. For the same compound, the EC50 in experiment [2] (footnote f, KQK MCP-1, SEE MIP1α, KLK SDF1, KEN IL8, read-out: ED50 of a tripeptide against the one chemokine it is highly specific for) came to 6 µM. Moreover, in experiment [4] (setting [6]), the “ED50 versus IL8, inhibition of THP-1 migration” value is “n.s”.
Broadly, the % inhibition is the relative decrease from the control value, in per cent. Turning to EICADPKQKWVQ [peptide 3(1-12)[MCP-1]], in experiment [1], the “% inhibition at 100 μM versus MIP1α, THP-1 migration” value was 99%. Besides, the EC50 in experiment [1] (n.s. = no statistically significant inhibition (p > 0.05), read-out: ED50 versus MIP1α, inhibition of THP-1 migration) is 8 ± 1 µM; in experiment [3] (n.s. = no statistically significant inhibition (p > 0.05), read-out: ED50 versus SDF-1α, inhibition of THP-1 migration), 10 µM; in experiment [2] (average inhibitory ED50 for inhibition of THP-1 migration induced by each of the chemokines, read-out: AVERAGE ED50) it was 10 µM; in experiment [4] (n.s. = no statistically significant inhibition (p > 0.05), read-out: ED50 versus IL8, inhibition of THP-1 migration) it was 14 ± 1 µM. The “% inhibition at 100 μM versus TGFβ1, THP-1 migration” value in experiment [5] is “n.s”. The “ED50 versus TGFβ1, inhibition” value in experiment [5] is listed as “n.s”. For the same compound, in experiment [3], the “% inhibition at 100 μM versus SDF-1α, THP-1 migration” value is listed as 107%. Moreover, the “% inhibition at 100 μM of migration induced by any of the chemokines tested” value in experiment [2] (100 μM, THP-1) is on record as above 99%. Besides, the “CC SPECIFICITY” value in experiment [2] is reported as 1.5. The “selectivity ratio (CC versus CXC chemokines)” value in experiment [2] (greater than 1 = greater inhibition of CC chemokines relative to CXC chemokines) is given as 1.5. In experiment [4], the “% inhibition at 100 μM versus IL8, THP-1 migration” value was found to be 103%.
“SYRRITSSKCPKEAV [peptide 2(1-15)[MCP-1]]”: the “% inhibition at 100 μM versus MIP1α, THP-1 migration” value in experiment [1] was “n.s”. In experiment [1] (setting [6]), the “ED50 versus MIP1α, inhibition of THP-1 migration” value was “n.s”. The “MIPIa ED-50” value in experiment [1] (setting [7]) is recorded as “ns”. In addition, in experiment [5], the “% inhibition at 100 μM versus TGFβ1, THP-1 migration” value is listed as “n.s” and the “ED50 versus TGFβ1, inhibition” value is reported as “n.s”. Moreover, the “% inhibition at 100 μM versus SDF-1α, THP-1 migration” value in experiment [3] is recorded as “n.s”. Besides, in experiment [3] (setting [6]), the “ED50 versus SDF-1α, inhibition of THP-1 migration” value is “n.s”. Moreover, the “SDF1a ED-50” value in experiment [3] (setting [7]) is “ns”. Further, the “effect on THP-1 migration induced by the chemokine panel, in words” value in experiment [2] (MCP-1, MIP1α) was “no significant effect”. The “% inhibition at 100 μM versus IL8, THP-1 migration” value in experiment [4] was “n.s”. In addition, the “ED50 versus IL8, inhibition of THP-1 migration” value in experiment [4] (setting [6]) is given as “n.s”.
